Results on one substance are retold here after US11505797B2, “Gene knockout of variant NRF2 for treatment of cancer” (Christiana Care Health Services, Inc., priority 2019, dated 2022).

“And” between values parts separate entries of the source, which are not always exact repeats. Identical values can stand only once. “Also recorded” adds a separate entry of the source.

For assay [1], the system named is wildtype NRF2 sequence. Kind of assay: In vitro cleavage reaction, wildtype NRF2 amplicons. The format is biochemical, human. Conditions: A549 or H1703 parental amplicons, 0.5-5 pmol RNP, gel electrophoresis. As to the method:
(§1) As proof of concept, an in vitro cleavage reaction was conducted to assess the level of discrimination using the R34G guide RNA in a ribonucleoprotein complex (RNP). The in vitro cleavage reaction encompasses complexing target specific-guide RNA with Cas9 protein to form a ribonucleoprotein (RNP). The RNP is incubated with DNA of interest (100 ng) and the reaction and cleavage products are visualized by gel electrophoresis. For this experiment, wildtype and R34G-mutated NRF2 PCR products (901 bp) from an NRF2 expression plasmid (FIG. 21) were incubated with R34G-targeting RNP complex (1 μM) and cleavage products were visualized by gel electrophoresis, shown in FIG. 22.
Once the sequences were verified, genomic DNA from each cell line was used to amplify exon 2 of NRF2. The PCR products (530 bp) from each cell line were then used in in vitro cleavage reactions under various parameters to test specificity and fidelity of the R34G-targeting RNP. For these cleavage reactions, expected cleavage products would appear at 385 and 145 bp as indicated by the red lines along the ladder, with uncut product appearing at 530 bp. FIG. 24 depicts the gel image from an in vitro cleavage reaction using wildtype NRF2 sequence from parental A549 cells and R34G-mutated NRF2 sequence from the A549 R34G-6 cells. […]

Assay [2] relates to wildtype NRF2 gene in NCI-H1703 cell line. Kind of assay: TIDE analysis after transfection of R34G-targeting RNP, H1703 parental cells. It is filed as cell-based, human. As to the method:
(§2) The in vitro cleavage reactions were further assessed through cell based-experiments using the same cell lines: A549 and H1703 parental cell lines and the A549 R34G-6 cell line. The cell lines were cultured under the standard conditions and transfected by electroporation (Lonza, Nucleofection) using previously established parameters. FIGS. 27-29 depict the genetic analysis of eight separate experiments using all three cell lines after transfection of the R34G-targeting RNP. This experiment was conducted under three different conditions. The first condition was using an equimolar concentration of duplexed guide RNA to Cas9. The second condition was using five times the amount of duplexed guide RNA to Cas9, along with using a GFP (Green Fluorescent Protein) expression vector to measure transfection efficiency and to sort the GFP-positive population for further analysis. The third condition was using five times the amount of single guide RNA to Cas9, along with the GFP expression vector and sorting of the GFP-positive population for further analysis.
FIG. 29 depicts the genetic analysis after transfection of the R34G-targeting RNP in the NCI-H1703 cell line, which contains a wildtype NRF2 gene and no native CRISPR recognition site.

Assay [3] concerns wildtype NRF2 gene in A549 parental cells. Briefly: TIDE analysis after transfection of R34G-targeting RNP, A549 parental cells. It is filed as cell-based, human. The protocol: as §2
FIG. 27 depicts the genetic analysis after transfection of the R34G-targeting RNP in the A549 parental cells. The A549 parental cells contain a wildtype NRF2 gene therefore there is no native CRISPR/Cas9 recognition site for the R34G-targeting RNP. […]

Assay [4] deals with R34G-mutated NRF2 gene in A549 R34G-6 cells. Kind of assay: TIDE analysis after transfection of R34G-targeting RNP, A549 R34G-6 cells. The format is cell-based, human. Conditions: GFP-positive sorted population. As to the method: as §2
FIG. 28 depicts the genetic analysis after transfection of the R34G-targeting RNP in the A549 R34G-mutated clonal cell line (A549 R34G-6). The A549 R34G-6 cells contain a heterozygous R34G mutation in exon 2 of the NRF2 gene, creating a new CRISPR recognition site for the R34G-targeting RNP. […] The significant total indel efficiency indicates the R34G-targeting RNP is very active. […] The lower R2 value indicates some of the sequence analysis is unaccounted for likely because of sequence quality. […] Although only a speculation, the R34G-targeting RNP does differentiate between the wildtype and R34G-mutated alleles within the clonal cell line.

Assay [5] has as its system R34G-mutated NRF2 sequence. Kind of assay: In vitro cleavage reaction, R34G-mutated NRF2 amplicons. It is filed as biochemical, human. Conditions: gel electrophoresis; for cleavage specificity, NRF2 expression plasmid and 901 bp amplicons: wildtype versus R34G NRF2, RNP 1 μM, DNA 100 ng. As to the method:
as §1
Once the sequences were verified, genomic DNA from each cell line was used to amplify exon 2 of NRF2. The PCR products (530 bp) from each cell line were then used in in vitro cleavage reactions under various parameters to test specificity and fidelity of the R34G-targeting RNP. For these cleavage reactions, expected cleavage products would appear at 385 and 145 bp as indicated by the red lines along the ladder, with uncut product appearing at 530 bp. FIG. 24 depicts the gel image from an in vitro cleavage reaction using wildtype NRF2 sequence from parental A549 cells and R34G-mutated NRF2 sequence from the A549 R34G-6 cells. An increasing concentration (0.5-5 pmol) of R34G-targeting RNP was used to determine the threshold and fidelity of the sequence. […] Uncut product (top band, 530 bp) can still be seen in lanes 7-10, which corresponds to the heterozygosity of the R34G mutation in the A549 R34G-6 cell line. Therefore, the wildtype NRF2 allele in the A549 R34G-6 cell line acts as an internal negative control.
Another in vitro cleavage reaction was conducted to assess the cleavage efficiency of the wildtype NRF2 sequence to ensure the R34G-targeting RNP was, in fact, not cleaving the wildtype NRF2 sequence because of the lack of the R34G mutation. A guide RNA with a cut site 29 bp upstream (labeled Neh2 RNP) from the R34G RNP cut site was selected and used as a positive cleavage control. […] Lanes 1-8 were reactions using wildtype NRF2 sequence while lanes 9-16 were reactions using R34G-mutated NRF2 sequence. In lanes 2-4 and 10-12, PCR products were incubated with increasing concentrations (1, 3 & 5 pmol) of RNP targeting the beginning of exon 2 (Neh2 RNP). The Neh2 guide RNA sequence is: 5′ […] 3′ (SEQ ID NO:13) which is a native CRISPR site and used as the positive control for cleavage for these reactions. […] In lanes 6-8 and 14-16, PCR products were incubated with increasing concentrations (1, 3 & 5 pmol) of R34G-targeting RNP. […] This further reinforces the specificity of the R34G-targeting RNP only recognizing the target DNA in the presence of the R34G mutation in exon 2 of NRF2. […]

Setting [6] is: top panel, bulk unsorted population.

For “5′ GATATAGATCTTGGAGTAAGTGG 3′ [R34G-targeting RNP]”, in assay [1], the “cleavage of wildtype NRF2 amplicon (530 bp)” value was “does not result in cleavage of wildtype NRF2 sequence; also recorded: minimal cleavage seen in lanes 6-8”. In addition, the total indel efficiency was 4.6% in assay [2] (bottom panel, GFP-sorted population); 0.0% in assay [2] (setting [6]); 11.4% and 11.3% in assay [3] (bottom panel, GFP-positive sorted population); 11.8% and 11.4% in assay [3] (setting [6]); 32.7% in assay [4] (bottom panel); 55.7% in assay [4] (middle panel). The “sequence analyzed that is wildtype” value in assay [4] (middle panel) worked out at 32.0%. Further, the “cleavage of R34G-mutated NRF2 amplicon (530 bp)” value in assay [5] (A549 R34G-6 amplicon, 0.5-5 pmol RNP) is listed as “cleavage products can be seen even with half of the standard concentration; also recorded: clearly seen”. Moreover, the “cleavage specificity, NRF2 expression plasmid and 901 bp amplicons” value in assay [5] is “only recognizes and cleaves the mutated DNA sequence”; in assay [5] (listed as R34G RNP), “only recognizes and cleaves with the mutation present”.
